Experimental data as given in ChEMBL document CHEMBL4411307, “N,N'-diaryl-bishydrazones in a biphenyl platform: Broad spectrum antifungal agents” (Eur J Med Chem, 2019).
Values after ≈ are worked out from the molar mass of the structure shown. Active and inactive are the calls of the source. No cut-off for these calls is given here.

Key:
[1] = test system: Listeria monocytogenes; test: Antibacterial activity against Listeria monocytogenes; format: functional, organism-based
[2] = test system: Staphylococcus aureus; test: Antibacterial activity against methicillin-resistant Staphylococcus aureus; format: functional, organism-based
[3] = test system: Enterococcus; test: Antibacterial activity against vancomycin-resistant Enterococcus; format: functional, organism-based
[4] = test system: Candida albicans; test: Antifungal activity against fluconazole/ITC-resistant Candida albicans ATCC 10231 measured after 48 hrs by CLSI M27-A3 protocol based method; format: functional; details: ATCC 10231, 48 h
[5] = test system: Candida albicans; test: Antifungal activity against fluconazole/ITC-resistant Candida albicans ATCC 64124 measured after 48 hrs by CLSI M27-A3 protocol based method; format: functional; details: ATCC 64124, 48 h
[6] = test system: Candida albicans; test: Antifungal activity against fluconazole/ITC-susceptible Candida albicans ATCC MYA-2876 measured after 48 hrs by CLSI M27-A3 protocol based method; format: functional; details: ATCC MYA-2876, 48 h
[7] = test system: Candida albicans; test: Antifungal activity against fluconazole/ITC-resistant Candida albicans ATCC 90819 measured after 48 hrs by CLSI M27-A3 protocol based method; format: functional; details: ATCC 90819, 48 h
[8] = test system: Candida albicans; test: Antifungal activity against fluconazole/ITC-susceptible Candida albicans ATCC MYA-2310 measured after 48 hrs by CLSI M27-A3 protocol based method; format: functional; details: ATCC MYA-2310, 48 h
[9] = test system: Candida albicans; test: Antifungal activity against fluconazole/ITC-resistant Candida albicans ATCC MYA-1237 measured after 48 hrs by CLSI M27-A3 protocol based method; format: functional; details: ATCC MYA-1237, 48 h
[10] = test system: Candida albicans; test: Antifungal activity against fluconazole/ITC-resistant Candida albicans ATCC MYA-1003 measured after 48 hrs by CLSI M27-A3 protocol based method; format: functional; details: ATCC MYA-1003, 48 h
[11] = test system: Nakaseomyces glabratus; test: Antifungal activity against Candida glabrata ATCC 2001 measured after 48 hrs by CLSI M27-A3 protocol based method; format: functional; details: CBS 138, 48 h
[12] = test system: Pichia kudriavzevii; test: Antifungal activity against Candida krusei ATCC 6258 measured after 48 hrs by CLSI M27-A3 protocol based method; format: functional; details: ATCC 6258, 48 h
[13] = test system: Candida parapsilosis; test: Antifungal activity against Candida parapsilosis ATCC 22019 measured after 48 hrs by CLSI M27-A3 protocol based method; format: functional; details: Lodderomyces parapsilosis, ATCC 22019, 48 h
[14] = test system: Aspergillus flavus; test: Antifungal activity against Aspergillus flavus ATCC MYA-3631 measured after 48 hrs by CLSI M38-A2 protocol based method; format: functional; details: ATCC MYA-3631, 48 h
[15] = test system: Aspergillus nidulans; test: Antifungal activity against Aspergillus nidulans ATCC 38163 measured after 48 hrs by CLSI M38-A2 protocol based method; format: functional; details: ATCC 38163, 48 h
[16] = test system: Aspergillus terreus; test: Antifungal activity against Aspergillus terreus ATCC MYA-3633 measured after 48 hrs by CLSI M38-A2 protocol based method; format: functional; details: ATCC MYA-3633, 48 h
[17] = test system: A549; test: Cytotoxicity against human A549 cells after 24 hrs by resazurin based assay; format: cell-based; details: a549, 24 h
[18] = test system: BEAS-2B; test: Cytotoxicity against human BEAS2B cells after 24 hrs by resazurin based assay; format: cell-based
[19] = Selectivity index, ratio of CC50 for human A549 cells to MIC for fluconazole/ITC-resistant Candida albicans ATCC 10231; format: toxicity; details: read-out: Selectivity Index
[20] = Selectivity index, ratio of CC50 for human A549 cells to MIC for fluconazole/ITC-resistant Candida albicans ATCC 64124; format: toxicity; details: read-out: Selectivity Index
[21] = Selectivity index, ratio of CC50 for human A549 cells to MIC for fluconazole/ITC-susceptible Candida albicans ATCC MYA-2876; format: toxicity; details: read-out: Selectivity Index
[22] = Selectivity index, ratio of CC50 for human A549 cells to MIC for fluconazole/ITC-resistant Candida albicans ATCC 90819; format: toxicity; details: read-out: Selectivity Index
[23] = Selectivity index, ratio of CC50 for human A549 cells to MIC for fluconazole/ITC-susceptible Candida albicans ATCC MYA-2310; format: toxicity; details: read-out: Selectivity Index
[24] = Selectivity index, ratio of CC50 for human A549 cells to MIC for fluconazole/ITC-resistant Candida albicans ATCC MYA-1237; format: toxicity; details: read-out: Selectivity Index
[25] = Selectivity index, ratio of CC50 for human A549 cells to MIC for fluconazole/ITC-resistant Candida albicans ATCC MYA-1003; format: toxicity; details: read-out: Selectivity Index
[26] = Selectivity index, ratio of CC50 for human A549 cells to MIC for Candida glabrata ATCC 2001; format: toxicity; details: read-out: Selectivity Index
[27] = Selectivity index, ratio of CC50 for human A549 cells to MIC for Candida krusei ATCC 6258; format: toxicity; details: read-out: Selectivity Index
[28] = Selectivity index, ratio of CC50 for human A549 cells to MIC for Candida parapsilosis ATCC 22019; format: toxicity; details: read-out: Selectivity Index
[29] = Selectivity index, ratio of CC50 for human A549 cells to MIC for Aspergillus nidulans ATCC 38163; format: toxicity; details: read-out: Selectivity Index
[30] = Selectivity index, ratio of CC50 for human A549 cells to MIC for Aspergillus terreus ATCC MYA-3633; format: toxicity; details: read-out: Selectivity Index
[31] = Hemolytic activity in mouse RBC at […] after 1 hr relative to control; format: ADME, cell-based, Erythrocyte; details: red blood cells (erythrocytes), read-out: Activity; note: tested at 0.48 µg/mL
[32] = Hemolytic activity in mouse RBC at […] ug/ml after 1 hr relative to control; format: ADME, cell-based, Erythrocyte; details: red blood cells (erythrocytes), read-out: Activity
[33] = Hemolytic activity in mouse RBC at 1.95 ug/ml after 1 hr relative to control; format: ADME, cell-based, Erythrocyte; details: red blood cells (erythrocytes), read-out: Activity
[34] = Hemolytic activity in mouse RBC at 3.9 ug/ml after 1 hr relative to control; format: ADME, cell-based, Erythrocyte; details: red blood cells (erythrocytes), read-out: Activity
[35] = Hemolytic activity in mouse RBC at 7.8 ug/ml after 1 hr relative to control; format: ADME, cell-based, Erythrocyte; details: red blood cells (erythrocytes), read-out: Activity
[36] = Hemolytic activity in mouse RBC at 31.3 ug/ml after 1 hr relative to control; format: ADME, cell-based, Erythrocyte; details: red blood cells (erythrocytes), read-out: Activity
[37] = Hemolytic activity in mouse RBC at 62.5 ug/ml after 1 hr relative to control; format: ADME, cell-based, Erythrocyte; details: red blood cells (erythrocytes), read-out: Activity
[38] = Selectivity index, ratio of compound concentration showing <20 to <30% hemolysis in mouse RBC to MIC for fluconazole/ITC-resistant Candida albicans ATCC 10231; format: toxicity; details: red blood cells (erythrocytes), read-out: Selectivity Index
[39] = Selectivity index, ratio of compound concentration showing <20 to <30% hemolysis in mouse RBC to MIC for fluconazole/ITC-resistant Candida albicans ATCC 64124; format: toxicity; details: red blood cells (erythrocytes), read-out: Selectivity Index
[40] = Selectivity index, ratio of compound concentration showing <20 to <30% hemolysis in mouse RBC to MIC for fluconazole/ITC-susceptible Candida albicans ATCC MYA-2876; format: toxicity; details: red blood cells (erythrocytes), read-out: Selectivity Index
[41] = Selectivity index, ratio of compound concentration showing <20 to <30% hemolysis in mouse RBC to MIC for fluconazole/ITC-resistant Candida albicans ATCC 90819; format: toxicity; details: red blood cells (erythrocytes), read-out: Selectivity Index
[42] = Selectivity index, ratio of compound concentration showing <20 to <30% hemolysis in mouse RBC to MIC for fluconazole/ITC-susceptible Candida albicans ATCC MYA-2310; format: toxicity; details: mouse red blood cells (RBC), read-out: Selectivity Index
[43] = Selectivity index, ratio of compound concentration showing <20 to <30% hemolysis in mouse RBC to MIC for fluconazole/ITC-resistant Candida albicans ATCC MYA-1237; format: toxicity; details: mouse red blood cells (RBC), read-out: Selectivity Index
[44] = Selectivity index, ratio of compound concentration showing <20 to <30% hemolysis in mouse RBC to MIC for fluconazole/ITC-resistant Candida albicans ATCC MYA-1003; format: toxicity; details: mouse red blood cells (RBC), read-out: Selectivity Index
[45] = Selectivity index, ratio of compound concentration showing <20 to <30% hemolysis in mouse RBC to MIC for Candida glabrata ATCC 2001; format: toxicity; details: mouse red blood cells (RBC), read-out: Selectivity Index
[46] = Selectivity index, ratio of compound concentration showing <20 to <30% hemolysis in mouse RBC to MIC for Candida krusei ATCC 6258; format: toxicity; details: mouse red blood cells (RBC), read-out: Selectivity Index
[47] = Selectivity index, ratio of compound concentration showing <20 to <30% hemolysis in mouse RBC to MIC for Candida parapsilosis ATCC 22019; format: toxicity; details: mouse red blood cells (RBC), read-out: Selectivity Index
[48] = Selectivity index, ratio of compound concentration showing <20 to <30% hemolysis in mouse RBC to MIC for Aspergillus flavus ATCC MYA-3631; format: toxicity; details: mouse red blood cells (RBC), read-out: Selectivity Index
[49] = Selectivity index, ratio of compound concentration showing <20 to <30% hemolysis in mouse RBC to MIC for Aspergillus nidulans ATCC 38163; format: toxicity; details: mouse red blood cells (RBC), read-out: Selectivity Index
[50] = Selectivity index, ratio of compound concentration showing <20 to <30% hemolysis in mouse RBC to MIC for Aspergillus terreus ATCC MYA-3633; format: toxicity; details: mouse red blood cells (RBC), read-out: Selectivity Index

SMILES: Fc1cccc(N/N=C/c2ccc(-c3ccc(/C=N/Nc4cccc(F)c4)cc3)cc2)c1
- Activity [1]: inactive
- Activity [2]: inactive
- Activity [3]: inactive
- MIC [4]: 7.8 µg/mL (≈ 18.3 µM)
- MIC [5]: > 31.3 µg/mL
- MIC [6]: > 31.3 µg/mL
- MIC [7]: > 31.3 µg/mL
- MIC [8]: > 31.3 µg/mL
- MIC [9]: > 31.3 µg/mL
- MIC [10]: > 31.3 µg/mL
- MIC [11]: > 31.3 µg/mL
- MIC [12]: 15.6 µg/mL (≈ 36.6 µM)
- MIC [13]: 3.9 µg/mL (≈ 9.14 µM)
- MIC [14]: 31.3 µg/mL (≈ 73.4 µM)
- MIC [15]: > 31.3 µg/mL
- MIC [16]: > 31.3 µg/mL
- CC50 [17]: > 31 µg/mL
- CC50 [18]: 16 µg/mL (≈ 37.5 µM)
- selectivity ratio [19]: 4
- selectivity ratio [20]: 1
- selectivity ratio [21]: 1
- selectivity ratio [22]: 1
- selectivity ratio [23]: 1
- selectivity ratio [24]: 1
- selectivity ratio [25]: 1
- selectivity ratio [26]: 1
- selectivity ratio [27]: 2
- selectivity ratio [28]: 8
- selectivity ratio [29]: 1
- selectivity ratio [30]: 1
- hemolysis at 1 h, […] [31]: 0.2%
- hemolysis at 1 h, 15.6 ug/ml ([32]; at 15.6 µg/mL): 7.7%
- hemolysis at 1 h, 0.975 ug/ml [32]: 0.8%
- hemolysis at 1 h, 1.95 ug/ml [33]: 0%
- hemolysis at 1 h, 3.9 ug/ml [34]: 3.2%
- hemolysis at 1 h, 7.8 ug/ml [35]: 2.6%
- hemolysis at 1 h, 31.3 ug/ml [36]: 10.3%
- hemolysis at 1 h, 62.5 ug/ml [37]: 13.6%
- selectivity ratio [38]: 1 to 32
- selectivity ratio [39]: 1 to 32
- selectivity ratio [40]: 1 to 32
- selectivity ratio [41]: 1 to 32
- selectivity ratio [42]: 1 to 32
- selectivity ratio [43]: 1 to 32
- selectivity ratio [44]: 1 to 32
- selectivity ratio [45]: 1 to 32
- selectivity ratio [46]: 1 to 32
- selectivity ratio [47]: 1 to 32
- selectivity ratio [48]: 1 to 32
- selectivity ratio [49]: 1 to 32
- selectivity ratio [50]: 1 to 32
